Measurements reported in patent US9113629B2, “4-amino-6-(4-substituted-phenyl)-picolinates and 6-amino-2-(4-substituted-phenyl)-pyrimidine-4-carboxylates and their use as herbicides” (DOW AGROSCIENCES LLC, priority 2013, dated 2015).
Where two headings read alike, the source gives them in different places.

Experiments:
[1] = tested on: Key Broadleaf Weed and Crop Species; assay: Post-emergent Test II herbicidal activity (Table 5); assay type: in vivo; conditions: post-emergence, 336 h, post-emergent, 14 days after application; for pest or weed control at 70 g/ha: 70 g ai/ha
Outline: (§1)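 Greenhouse-grown plants at first or second true leaf stage were sprayed post-emergence with compound in acetone/DMSO-based aqueous spray containing crop oil concentrate and surfactant, at 187 L/ha, highest rate plus ½× to 1/16× dilutions. After 14 d, injury was scored visually versus untreated plants, 0 (none) to 100% (complete kill).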

[2] = tested on: Key Grass and Sedge Weeds as well as Grass Crops; assay: Post-emergent Test II herbicidal activity (Table 6); assay type: in vivo; conditions: post-emergence, 336 h; for pest or weed control at 70 g/ha: application rate 70 g ai/ha; for pest or weed control at 140 g/ha: application rate 140 g ai/ha
Outline: as §1

[3] = ABUTH: velvetleaf (Abutilon theophrasti), read-out: Visual Growth Reduction (%) 14 Days After Application ABUTH
[4] = ABUTH: velvetleaf (Abutilon theophrasti), 140 g ai/ha, read-out: Visual Growth Reduction (%) 14 Days After Application ABUTH
[5] = AMARE: redroot pigweed (Amaranthus retroflexus), read-out: Visual Growth Reduction (%) 14 Days After Application AMARE
[6] = AMARE: redroot pigweed (Amaranthus retroflexus), 140 g ai/ha, read-out: Visual Growth Reduction (%) 14 Days After Application AMARE
[7] = BRSNN: oilseed-rape, canola (Brassica napus), read-out: Visual Growth Reduction (%) 14 Days After Application BRSNN
[8] = BRSNN: oilseed-rape, canola (Brassica napus), 140 g ai/ha, read-out: Visual Growth Reduction (%) 14 Days After Application BRSNN
[9] = CHEAL: lambsquarters (Chenopodium album), read-out: Visual Growth Reduction (%) 14 Days After Application CHEAL
[10] = CHEAL: lambsquarters (Chenopodium album), 140 g ai/ha, read-out: Visual Growth Reduction (%) 14 Days After Application CHEAL
[11] = EPHHL: wild poinsettia (Euphorbia heterophylla), read-out: Visual Growth Reduction (%) 14 Days After Application EPHHL
[12] = EPHHL: wild poinsettia (Euphorbia heterophylla), 140 g ai/ha, read-out: Visual Growth Reduction (%) 14 Days After Application EPHHL
[13] = HELAN: sunflower (Helianthus annuus), read-out: Visual Growth Reduction (%) 14 Days After Application HELAN
[14] = HELAN: sunflower (Helianthus annuus), 140 g ai/ha, read-out: Visual Growth Reduction (%) 14 Days After Application HELAN
[15] = VIOTR: wild pansy (Viola tricolor), read-out: Visual Growth Reduction (%) 14 Days After Application VIOTR
[16] = VIOTR: wild pansy (Viola tricolor), 140 g ai/ha, read-out: Visual Growth Reduction (%) 14 Days After Application VIOTR
[17] = CYPES: yellow nutsedge (Cyperus esculentus), read-out: Visual Growth Reduction (%) 14 Days After Application, CYPES
[18] = DIGSA: crabgrass (Digitaria sanguinalis), read-out: Visual Growth Reduction (%) 14 Days After Application, DIGSA
[19] = ECHCG: barnyardgrass (Echinochloa crus-galli), read-out: Visual Growth Reduction (%) 14 Days After Application, ECHCG
[20] = ORYSA: rice (Oryza sativa), read-out: Visual Growth Reduction (%) 14 Days After Application, ORYSA
[21] = SETFA: giant foxtail (Setaria faberi), read-out: Visual Growth Reduction (%) 14 Days After Application, SETFA
[22] = SORVU: grain sorghum (Sorghum vulgare), read-out: Visual Growth Reduction (%) 14 Days After Application, SORVU
[23] = TRZSS (wheat, Triticum aestivum), read-out: Visual Growth Reduction (%) 14 Days After Application, TRZSS
[24] = ZEAMX: maize, corn (Zea mays), read-out: Visual Growth Reduction (%) 14 Days After Application, ZEAMX

Compound	melting point	pest or weed control at 70 g/ha [1, 3]	pest or weed control at 70 g/ha [1, 5]	pest or weed control at 70 g/ha [1, 7]	pest or weed control at 70 g/ha [1, 9]	pest or weed control at 70 g/ha [1, 11]	pest or weed control at 70 g/ha [1, 13]	pest or weed control at 70 g/ha [1, 15]	pest or weed control at 70 g/ha [2, 17]	pest or weed control at 140 g/ha [2, 17]	pest or weed control at 70 g/ha [2, 18]	pest or weed control at 140 g/ha [2, 18]	pest or weed control at 70 g/ha [2, 19]	pest or weed control at 140 g/ha [2, 19]	pest or weed control at 70 g/ha [2, 20]	pest or weed control at 140 g/ha [2, 20]	pest or weed control at 70 g/ha [2, 21]	pest or weed control at 140 g/ha [2, 21]	pest or weed control at 70 g/ha [2, 22]	pest or weed control at 140 g/ha [2, 22]	further results
COC(=O)c1nc(-c2cc(F)c(C(F)F)cc2F)c(F)c(N)c1Cl [Compound 176]	135.2 to 136.9 °C	95 to 100%	95 to 100%	95 to 100%	85 to 94%	95 to 100%	95 to 100%	30 to 44%	85 to 94%	95 to 100%	45 to 59%	60 to 74%	85 to 94%	85 to 94%	0 to 29%	0 to 29%	85 to 94%	85 to 94%	60 to 74%	85 to 94%	pest or weed control at 140 g/ha [1, 4]: 95 to 100%; pest or weed control at 140 g/ha [1, 6]: 95 to 100%; pest or weed control at 140 g/ha [1, 8]: 95 to 100%; pest or weed control at 140 g/ha [1, 10]: 85 to 94%; pest or weed control at 140 g/ha [1, 12]: 95 to 100%; pest or weed control at 140 g/ha [1, 14]: 95 to 100%; pest or weed control at 140 g/ha [1, 16]: 45 to 59%; pest or weed control at 70 g/ha [2, 23]: 30 to 44%; pest or weed control at 140 g/ha [2, 23]: 45 to 59%; pest or weed control at 70 g/ha [2, 24]: 0 to 29%; pest or weed control at 140 g/ha [2, 24]: 85 to 94%
COC(=O)c1nc(-c2cc(F)c(OC(F)F)cc2F)cc(N)c1Cl [Compound 177]	107.5 to 110.3 °C	85 to 94%	75 to 84%	30 to 44%	75 to 84%	95 to 100%	30 to 44%	0 to 29%	45 to 59%	45 to 59%	0 to 29%	0 to 29%	0 to 29%	60 to 74%	0 to 29%	0 to 29%	30 to 44%	45 to 59%	0 to 29%	45 to 59%	pest or weed control at 140 g/ha [1, 4]: 85 to 94%; pest or weed control at 140 g/ha [1, 6]: 85 to 94%; pest or weed control at 140 g/ha [1, 8]: 75 to 84%; pest or weed control at 140 g/ha [1, 10]: 85 to 94%; pest or weed control at 140 g/ha [1, 12]: 95 to 100%; pest or weed control at 140 g/ha [1, 14]: 0 to 29%; pest or weed control at 140 g/ha [1, 16]: 0 to 29%; pest or weed control at 70 g/ha [2, 23]: 30 to 44%; pest or weed control at 140 g/ha [2, 23]: 30 to 44%; pest or weed control at 70 g/ha [2, 24]: 0 to 29%; pest or weed control at 140 g/ha [2, 24]: 0 to 29%
COC(=O)c1nc(-c2cc(F)c(C)cc2F)cc(N)c1Cl [Compound 179]	137.2 to 138.8 °C	95 to 100%	95 to 100%	30 to 44%	95 to 100%	95 to 100%	85 to 94%	0 to 29%	0 to 29%	0 to 29%	0 to 29%	0 to 29%	0 to 29%	30 to 44%	0 to 29%	0 to 29%	0 to 29%	0 to 29%	0 to 29%	45 to 59%	pest or weed control at 140 g/ha ([1]; ABUTH: velvetleaf (Abutilon theophrasti), application rate 140 g ai/ha, read-out: Visual Growth Reduction (%) 14 Days After Application, ABUTH): 95 to 100%; pest or weed control at 140 g/ha ([1]; AMARE: redroot pigweed (Amaranthus retroflexus), application rate 140 g ai/ha, read-out: Visual Growth Reduction (%) 14 Days After Application, AMARE): 95 to 100%; pest or weed control at 140 g/ha ([1]; BRSNN: oilseed-rape, canola (Brassica napus), application rate 140 g ai/ha, read-out: Visual Growth Reduction (%) 14 Days After Application, BRSNN): 45 to 59%; pest or weed control at 140 g/ha ([1]; CHEAL: lambsquarters (Chenopodium album), application rate 140 g ai/ha, read-out: Visual Growth Reduction (%) 14 Days After Application, CHEAL): 95 to 100%; pest or weed control at 140 g/ha ([1]; EPHHL: wild poinsettia (Euphorbia heterophylla), application rate 140 g ai/ha, read-out: Visual Growth Reduction (%) 14 Days After Application, EPHHL): 95 to 100%; pest or weed control at 140 g/ha ([1]; HELAN: sunflower (Helianthus annuus), application rate 140 g ai/ha, read-out: Visual Growth Reduction (%) 14 Days After Application, HELAN): 85 to 94%; pest or weed control at 140 g/ha ([1]; VIOTR: wild pansy (Viola tricolor), application rate 140 g ai/ha, read-out: Visual Growth Reduction (%) 14 Days After Application, VIOTR): 0 to 29%; pest or weed control at 70 g/ha [2, 23]: 0 to 29%; pest or weed control at 140 g/ha [2, 23]: 0 to 29%; pest or weed control at 70 g/ha [2, 24]: 0 to 29%; pest or weed control at 140 g/ha [2, 24]: 0 to 29%
